In patent US20210038607A1, “OXADIAZOLYLTHIOPHENE DERIVATIVES USEFUL AS HISTONE DEACETYLASE INHIBITORS” (Karus Therapeutics Limited, priority 2018, published 2021):

Key:
Human HDAC5 = target: T1, Human HDAC5 (Homo sapiens, UniProt Q9UQL6); assay: HDAC5 biochemical assay, class IIa-specific substrate; conditions: read-out: HDAC Isoform IC50 (nM) 5
T1 construct: full length with C-terminal His tag, MW=51.1 kDa; His (C); host or cells: baculovirus expression system
Summary of the method: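 Two-step fluorogenic read-out: deacetylated trifluoroacetyl-lysine AMC substrate (50 μM) digested by developer, measured at Ex/Em 360/460. Deacetylation step: 0.05 ng/ul His-tagged full-length baculoviral enzyme with compound, 30 min, room temperature, pH 8.0 Tris with 1 mg/mL BSA and 1% DMSO.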

Recombinant human HDAC6 = target: T2, Recombinant human HDAC6 (Homo sapiens, UniProt Q9UBN7); assay: HDAC6 biochemical assay, AMC-labeled peptide substrate; conditions: HDAC6; read-out: HDAC Isoform IC50 (nM) 6
T2 construct: full length, MW=159 kDa; GST (N); host or cells: Sf9 insect cells (baculovirus)
T2 sequence (Q9UBN7 1-1215): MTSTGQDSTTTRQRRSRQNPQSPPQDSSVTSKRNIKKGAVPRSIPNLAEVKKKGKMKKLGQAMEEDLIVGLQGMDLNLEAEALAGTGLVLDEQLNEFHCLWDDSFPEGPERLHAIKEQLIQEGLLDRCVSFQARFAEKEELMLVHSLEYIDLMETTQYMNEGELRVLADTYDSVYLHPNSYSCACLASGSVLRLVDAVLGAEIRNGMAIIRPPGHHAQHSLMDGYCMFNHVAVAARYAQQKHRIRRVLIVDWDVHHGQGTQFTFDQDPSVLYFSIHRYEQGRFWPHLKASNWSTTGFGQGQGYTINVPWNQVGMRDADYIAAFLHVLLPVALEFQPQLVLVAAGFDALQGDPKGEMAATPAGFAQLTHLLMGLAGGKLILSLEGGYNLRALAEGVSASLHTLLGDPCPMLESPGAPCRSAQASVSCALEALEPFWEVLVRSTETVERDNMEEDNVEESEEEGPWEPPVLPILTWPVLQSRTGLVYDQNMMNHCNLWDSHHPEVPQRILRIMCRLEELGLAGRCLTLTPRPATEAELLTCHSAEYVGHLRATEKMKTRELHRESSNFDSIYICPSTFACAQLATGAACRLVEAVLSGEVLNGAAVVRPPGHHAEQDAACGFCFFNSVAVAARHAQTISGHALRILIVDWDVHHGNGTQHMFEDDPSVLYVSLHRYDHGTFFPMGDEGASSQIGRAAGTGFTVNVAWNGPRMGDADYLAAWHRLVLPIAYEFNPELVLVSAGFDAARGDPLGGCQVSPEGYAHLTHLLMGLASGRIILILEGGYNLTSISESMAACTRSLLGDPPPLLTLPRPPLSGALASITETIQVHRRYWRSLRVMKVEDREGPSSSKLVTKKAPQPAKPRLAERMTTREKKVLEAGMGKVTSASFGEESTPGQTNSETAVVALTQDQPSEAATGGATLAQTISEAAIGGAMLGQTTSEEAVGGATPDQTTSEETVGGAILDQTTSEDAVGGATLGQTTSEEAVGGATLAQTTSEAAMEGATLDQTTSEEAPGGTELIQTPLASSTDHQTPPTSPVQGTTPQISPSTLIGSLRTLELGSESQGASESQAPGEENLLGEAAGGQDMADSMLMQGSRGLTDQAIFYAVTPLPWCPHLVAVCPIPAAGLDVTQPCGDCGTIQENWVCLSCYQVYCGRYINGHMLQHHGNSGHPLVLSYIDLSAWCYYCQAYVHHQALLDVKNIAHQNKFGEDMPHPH
Summary of the method: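 Two-step fluorogenic read-out: enzyme deacetylates 50 μM RHKK(Ac)AMC for 1 h at 30° C in pH 8.0 Tris buffer with BSA and 1% DMSO, then developer cleavage gives signal at Ex 360/Em 460. Enzyme: 0.3 ng/ul recombinant full-length human HDAC6, GST-tagged, Sf9-expressed.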

Human HDAC11 = target: T3, Human HDAC11 (Homo sapiens, UniProt Q96DB2); assay: HDAC11 biochemical assay, class IIa-specific substrate; conditions: read-out: HDAC Isoform IC50 (nM) 11
T3 construct: Human HDAC11 (full length); His (N); host or cells: baculovirus expression system
T3 sequence (Q96DB2 1-347): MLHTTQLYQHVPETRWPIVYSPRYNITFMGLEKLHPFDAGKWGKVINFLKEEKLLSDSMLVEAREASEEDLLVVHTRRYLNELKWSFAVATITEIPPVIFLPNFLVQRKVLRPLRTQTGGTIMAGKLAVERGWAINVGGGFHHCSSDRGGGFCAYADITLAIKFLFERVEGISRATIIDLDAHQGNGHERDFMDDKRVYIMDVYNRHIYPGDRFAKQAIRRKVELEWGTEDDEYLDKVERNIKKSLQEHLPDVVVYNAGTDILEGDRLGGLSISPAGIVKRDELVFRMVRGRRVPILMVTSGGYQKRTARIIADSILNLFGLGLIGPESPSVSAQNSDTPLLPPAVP
Protocol: Activity against all zinc-dependent HDACs 1 to 11 was assessed by using an acetylated AMC-labeled peptide substrate. The substrate RHKK(Ac)AMC was used for HDAC1, HDAC2, HDAC3, HDAC6 and HDAC10; the substrate used for HDAC8 was RHK(Ac)K(Ac)AMC. Activity against the class IIa HDACs (HDAC4, 5, 7, 9) and HDAC11 was determined using a class IIa-specific substrate, BOC-Lys(trifluoroacetyl)-AMC (“Trifluoroacetyl Lysine”; see Lahm et al, 2007, PNAS, 104, 17335-17340). All assays were based on the AMC-labeled substrate and developer combination.
The protocol involved a two-step reaction: first, the substrate with the acetylated lysine side chain is incubated with a sample containing HDAC activity, to produce the deacetylated products, which are then digested in the second step by the addition of developer to produce the fluorescent signal proportional to the amount of deacetylated substrates.
Human HDAC11 (full length) (GenBank Accession No. NM_024827) with N-terminal His tag, MW=42.9 kDa, expressed in baculovirus expression system.
Assay Buffer: 50 mM Tris-HCl, pH8.0, 137 mM NaCl, 2.7 mM KCl, 1 mM MgC2. Before use, 1 mg/mL BSA and DMSO are added.
HDAC11: 5 ng/ul HDAC11 and 50 μMHDAC substrate are in the reaction buffer with 1% DMSO final. Incubate for 30 minutes at 30° C.
Stage 1: Deacetylation of substrate by incubation of HDAC enzymes with compounds
Stage 2: Development by addition of Developer to digest the deacetylated substrate, and generate the fluorescent colour; Detection: 360/460 Ex/Em

T1 sequence (Q9UQL6 656-1122 limits assumed): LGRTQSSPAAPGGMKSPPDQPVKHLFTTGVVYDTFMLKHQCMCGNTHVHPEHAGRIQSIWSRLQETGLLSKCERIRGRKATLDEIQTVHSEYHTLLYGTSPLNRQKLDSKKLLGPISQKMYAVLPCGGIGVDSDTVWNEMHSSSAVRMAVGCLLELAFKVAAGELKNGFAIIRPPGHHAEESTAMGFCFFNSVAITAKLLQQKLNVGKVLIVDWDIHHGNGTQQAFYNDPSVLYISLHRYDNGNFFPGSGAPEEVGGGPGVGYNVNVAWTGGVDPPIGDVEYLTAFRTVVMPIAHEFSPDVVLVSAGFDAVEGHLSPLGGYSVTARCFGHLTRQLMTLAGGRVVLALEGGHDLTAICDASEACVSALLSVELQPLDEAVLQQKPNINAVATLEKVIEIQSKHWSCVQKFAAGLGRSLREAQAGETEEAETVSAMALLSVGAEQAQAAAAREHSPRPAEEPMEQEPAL

Compound | IC50 (Human HDAC5) | IC50 (Recombinant human HDAC6) | IC50 (Human HDAC11)
C[C@H]1CCCN1C(=O)c1cnnc(N(Cc2ccc(-c3noc(C(F)(F)F)n3)s2)c2cnccn2)c1 [Example GY, 5-[(2S)-2-Methylpyrrolidine-1-carbonyl]-N-(pyrazin-2-yl)-N-({5-[5-(trifluoromethyl)-1,2,4-oxadiazol-3-yl]thiophen-2-yl}methyl)pyridazin-3-amine] | ≤ 1000 nM | ≤ 500 nM | > 10000 nM
O=C(c1ccc(N(Cc2ccc(-c3noc(C(F)(F)F)n3)s2)c2cnccn2)nn1)N1CCOCC1 [Example DS, 6-(Morpholine-4-carbonyl)-N-(pyrazin-2-yl)-N-({5-[5-(trifluoromethyl)-1,2,4-oxadiazol-3-yl]thiophen-2-yl}methyl)pyridazin-3-amine] | ≤ 500 nM | ≤ 500 nM | > 10000 nM
O=C(O)c1cnnc(N(Cc2ccc(-c3noc(C(F)(F)F)n3)s2)c2cnccn2)c1 [Example DW, 6-[(Pyrazin-2-yl)({5-[5-(trifluoromethyl)-1,2,4-oxadiazol-3-yl]thiophen-2-yl}methyl)amino]pyridazine-4-carboxylic acid] | ≤ 10000 nM | ≤ 500 nM | > 10000 nM
O=C(c1ccc(N(Cc2ccc(-c3noc(C(F)(F)F)n3)s2)c2cnccn2)nn1)N1CC(O)(C(F)(F)F)C1 [Example FK, 1-{6-[(Pyrazin-2-yl)({5-[5-(trifluoromethyl)-1,2,4-oxadiazol-3-yl]thiophen-2-yl}methyl)amino]pyridazine-3-carbonyl}-3-(trifluoromethyl)azetidin-3-ol] | ≤ 500 nM | ≤ 500 nM | > 10000 nM
CN(C(=O)c1cnnc(N(Cc2ccc(-c3noc(C(F)(F)F)n3)s2)c2cnccn2)c1)S(C)(=O)=O [Example GE, N-Methanesulfonyl-N-methyl-6-[(pyrazin-2-yl)({5-[5-(trifluoromethyl)-1,2,4-oxadiazol-3-yl]thiophen-2-yl}methyl)amino]pyridazine-4-carboxamide] | ≤ 1000 nM | ≤ 500 nM | > 10000 nM
FC(F)(F)c1nc(-c2ccc(CN(c3cnccn3)c3ccc(CN4CCOCC4)nn3)s2)no1 [Example FN, 6-[(Morpholin-4-yl)methyl]-N-(pyrazin-2-yl)-N-({5-[5-(trifluoromethyl)-1,2,4-oxadiazol-3-yl]thiophen-2-yl}methyl)pyridazin-3-amine] | ≤ 1000 nM | ≤ 500 nM | > 10000 nM
NC(=O)c1ccc(N(Cc2ccc(-c3noc(C(F)(F)F)n3)s2)c2cnccn2)nn1 [Example DQ, 6-[(Pyrazin-2-yl)({5-[5-(trifluoromethyl)-1,2,4-oxadiazol-3-yl]thiophen-2-yl}methyl)amino]pyridazine-3-carboxamide] | ≤ 500 nM | ≤ 500 nM | > 10000 nM
FC(F)(F)c1nc(-c2ccc(CN(c3cnccn3)c3cc(-c4ccccn4)cnn3)s2)no1 [Example GM, N-(Pyrazin-2-yl)-5-(pyridin-2-yl)-N-({5-[5-(trifluoromethyl)-1,2,4-oxadiazol-3-yl]thiophen-2-yl}methyl)pyridazin-3-amine] | ≤ 10000 nM | ≤ 500 nM | > 10000 nM
O=C(O)c1cnnc(N(Cc2ccc(-c3noc(C(F)(F)F)n3)s2)c2cc(C(F)(F)F)cnn2)c1 [Example ES, 6-[({5-[5-(Trifluoromethyl)-1,2,4-oxadiazol-3-yl]thiophen-2-yl}methyl)[5-(trifluoromethyl)pyridazin-3-yl]amino]pyridazine-4-carboxylicacid] | ≤ 10000 nM | ≤ 500 nM | > 10000 nM
O=C(c1cnnc(N(Cc2ccc(-c3noc(C(F)(F)F)n3)s2)c2cnccn2)c1)N1CC2(COC2)C1 [Example FZ, 5-{2-Oxa-6-azaspiro[3.3]heptane-6-carbonyl}-N-(pyrazin-2-yl)-N-({5-[5-(trifluoromethyl)-1,2,4-oxadiazol-3-yl]thiophen-2-yl}methyl)pyridazin-3-amine] | ≤ 1000 nM | ≤ 500 nM | > 10000 nM

The remaining lines, values ahead:

IC50 (Human HDAC5) | IC50 (Recombinant human HDAC6) | IC50 (Human HDAC11) | Compound
≤ 10000 nM | ≤ 500 nM | > 10000 nM | CC(F)(F)c1cnnc(N(Cc2ccc(-c3noc(C(F)(F)F)n3)s2)c2cnccn2)c1 [Example GU, 5-(1,1-Difluoroethyl)-N-(pyrazin-2-yl)-N-({5-[5-(trifluoromethyl)-1,2,4-oxadiazol-3-yl]thiophen-2-yl}methyl)pyridazin-3-amine]
≤ 1000 nM | ≤ 500 nM | > 10000 nM | O=C(c1cnnc(N(Cc2ccc(-c3noc(C(F)(F)F)n3)s2)c2cnccn2)c1)N1CC2CCC(C1)O2 [Example GA, 5-{8-Oxa-3-azabicyclo[3.2.1]octane-3-carbonyl}-N-(pyrazin-2-yl)-N-({5-[5-(trifluoromethyl)-1,2,4-oxadiazol-3-yl]thiophen-2-yl}methyl)pyridazin-3-amine]
≤ 10000 nM | ≤ 10000 nM | > 10000 nM | FC(F)(F)c1cncc(N(Cc2ccc(-c3noc(C(F)(F)F)n3)s2)c2cnccn2)n1 [Example BR, N-(Pyrazin-2-yl)-6-(trifluoromethyl)-N-({5-[5-(trifluoromethyl)-1,2,4-oxadiazol-3-yl]thiophen-2-yl}methyl)pyrazin-2-amine]
≤ 1000 nM | ≤ 500 nM | > 10000 nM | FC(F)(F)c1nc(-c2ccc(CN(c3cnccn3)c3cnccn3)s2)no1 [Example BA, N-(Pyrazin-2-yl)-N-({5-[5-(trifluoromethyl)-1,2,4-oxadiazol-3-yl]thiophen-2-yl}methyl)pyrazin-2-amine]
≤ 500 nM | ≤ 500 nM | > 10000 nM | CC(=O)Nc1cnnc(N(Cc2ccc(-c3noc(C(F)(F)F)n3)s2)c2cnccn2)c1 [Example FM, N-{6-[(Pyrazin-2-yl)({5-[5-(trifluoromethyl)-1,2,4-oxadiazol-3-yl]thiophen-2-yl}methyl)amino]pyridazin-4-yl}acetamide]
